From ChEMBL document CHEMBL1141535, “Benzothiazole based inhibitors of p38alpha MAP kinase” (Bioorg Med Chem Lett, 2008)
pIC50: −log10 of the molar value. Each block holds one molecule with its values, some of them ahead of it.

How the values were obtained:
[1] = target: Mitogen-activated protein kinase 14 (Homo sapiens, UniProt Q16539); assay: Inhibition of p38alpha
PBMC = assay: Inhibition of LPS-induced TNFalpha production in human PBMC; type: functional, cell-based
[2] = Half life in Sprague-Dawley rat at 2 mg/kg, iv; type: ADME, organism-based; design: dose 2 mg/kg, route intravenous; details: in vivo
[3] = Clearance in Sprague-Dawley rat at 2 mg/kg, iv; type: ADME, organism-based; design: dose 2 mg/kg, route intravenous; details: in vivo
[4] = AUC in Sprague-Dawley rat at 5 mg/kg, po; type: ADME, organism-based; design: dose 5 mg/kg, route oral; details: plasma
[5] = Bioavailability in Sprague-Dawley rat at 5 mg/kg, po; type: ADME, organism-based; details: in vivo
[6] = target: RAC-alpha serine/threonine-protein kinase (Homo sapiens) (UniProt P31749); assay: Inhibition of Atk1 at 10 uM
[7] = target: RAC-beta serine/threonine-protein kinase (Homo sapiens) (UniProt P31751); assay: Inhibition of Atk2 at 10 uM
[8] = target: RAC-gamma serine/threonine-protein kinase (Homo sapiens) (UniProt Q9Y243); assay: Inhibition of Atk3 at 10 uM
[9] = target: Tyrosine-protein kinase Blk (Homo sapiens) (UniProt P51451); assay: Inhibition of Blk at 10 uM
[10] = target: Cytoplasmic tyrosine-protein kinase BMX (Homo sapiens) (UniProt P51813); assay: Inhibition of Bmx at 10 uM
[11] = target: Protein-tyrosine kinase 6 (Homo sapiens) (UniProt Q13882); assay: Inhibition of Brk at 10 uM
[12] = target: Tyrosine-protein kinase BTK (Homo sapiens) (UniProt Q06187); assay: Inhibition of Btk at 10 uM
[13] = target: Calcium/calmodulin-dependent protein kinase type II subunit alpha (Homo sapiens) (UniProt Q9UQM7); assay: Inhibition of CaMK2-alpha at 10 uM
[14] = target: Serine/threonine-protein kinase Chk1 (Homo sapiens) (UniProt O14757); assay: Inhibition of CHK1 at 10 uM
[15] = target: Serine/threonine-protein kinase Chk2 (Homo sapiens) (UniProt O96017); assay: Inhibition of CHK2 at 10 uM
[16] = target: Casein kinase II subunit alpha (Homo sapiens) (UniProt P68400); assay: Inhibition of CK2-alpha-1 at 10 uM
[17] = target: Hepatocyte growth factor receptor (Homo sapiens) (UniProt P08581); assay: Inhibition of cMET at 10 uM
[18] = target: Tyrosine-protein kinase CSK (Homo sapiens) (UniProt P41240); assay: Inhibition of Csk at 10 uM
[19] = target: Epidermal growth factor receptor (Homo sapiens) (UniProt P00533); assay: Inhibition of EGFR at 10 uM
[20] = target: Ephrin type-A receptor 3 (Homo sapiens) (UniProt P29320); assay: Inhibition of EphA3 at 10 uM
[21] = target: Mitogen-activated protein kinase 3 (Homo sapiens) (UniProt P27361); assay: Inhibition of ERK1 at 10 uM
[22] = target: Mitogen-activated protein kinase 1 (Homo sapiens) (UniProt P28482); assay: Inhibition of ERK2 at 10 uM
[23] = target: Tyrosine-protein kinase Fes/Fps (Homo sapiens) (UniProt P07332); assay: Inhibition of FES at 10 uM
[24] = target: Fibroblast growth factor receptor 1 (Homo sapiens) (UniProt P11362); assay: Inhibition of FGFR1 at 10 uM
[25] = target: Fibroblast growth factor receptor 2 (Homo sapiens) (UniProt P21802); assay: Inhibition of FGFR2 at 10 uM
[26] = target: Fibroblast growth factor receptor 3 (Homo sapiens) (UniProt P22607); assay: Inhibition of FGFR3 at 10 uM
[27] = target: Fibroblast growth factor receptor 4 (Homo sapiens) (UniProt P22455); assay: Inhibition of FGFR4 at 10 uM
[28] = target: Tyrosine-protein kinase Fyn (Homo sapiens) (UniProt P06241); assay: Inhibition of Fyn at 10 uM
[29] = target: Glycogen synthase kinase-3 alpha (Homo sapiens) (UniProt P49840); assay: Inhibition of GSK3-alpha at 10 uM
[30] = target: Glycogen synthase kinase-3 beta (Homo sapiens) (UniProt P49841); assay: Inhibition of GSK3-beta at 10 uM
[31] = target: Tyrosine-protein kinase HCK (Homo sapiens) (UniProt P08631); assay: Inhibition of Hck at 10 uM
[32] = target: Megakaryocyte-associated tyrosine-protein kinase (Homo sapiens) (UniProt P42679); assay: Inhibition of Hyl at 10 uM
[33] = target: Insulin-like growth factor 1 receptor (Homo sapiens) (UniProt P08069); assay: Inhibition of IGF1R at 10 uM
[34] = target: Interleukin-1 receptor-associated kinase 4 (Homo sapiens) (UniProt Q9NWZ3); assay: Inhibition of IRAK4 at 10 uM
[35] = target: Tyrosine-protein kinase Lck (Homo sapiens) (UniProt P06239); assay: Inhibition of Lck at 10 uM
[36] = target: Tyrosine-protein kinase Lyn (Homo sapiens) (UniProt P07948); assay: Inhibition of Lyn A at 10 uM
[37] = target: Tyrosine-protein kinase Lyn (Homo sapiens) (UniProt P07948); assay: Inhibition of Lyn B at 10 uM
[38] = target: MAP kinase-activated protein kinase 2 (Homo sapiens) (UniProt P49137); assay: Inhibition of MAPKAP-K2 at 10 uM
[39] = target: MAP kinase-activated protein kinase 3 (Homo sapiens) (UniProt Q16644); assay: Inhibition of MAPKAP-K3 at 10 uM
[40] = target: MAP kinase-activated protein kinase 5 (Homo sapiens) (UniProt Q8IW41); assay: Inhibition of MAPKAP-K5 at 10 uM
[41] = target: Serine/threonine-protein kinase Nek2 (Homo sapiens) (UniProt P51955); assay: Inhibition of NEK2 at 10 uM
[42] = target: Platelet-derived growth factor receptor beta (Homo sapiens) (UniProt P09619); assay: Inhibition of PDGFRbeta at 10 uM
[43] = target: Phosphorylase b kinase gamma catalytic chain, liver/testis isoform (Homo sapiens) (UniProt P15735); assay: Inhibition of PHKG2 at 10 uM
[44] = Inhibition of PKA at 10 uM
[45] = target: Protein kinase C alpha type (Homo sapiens) (UniProt P17252); assay: Inhibition of PKCalpha at 10 uM
[46] = target: Protein kinase C beta type (Homo sapiens) (UniProt P05771); assay: Inhibition of PKCbeta1 at 10 uM
[47] = target: Protein kinase C beta type (Homo sapiens) (UniProt P05771); assay: Inhibition of PKC-beta-2 at 10 uM
[48] = target: Protein kinase C gamma type (Homo sapiens) (UniProt P05129); assay: Inhibition of PKCgamma at 10 uM
[49] = target: Protein kinase C delta type (Homo sapiens) (UniProt Q05655); assay: Inhibition of PKCdelta at 10 uM
[50] = target: Ribosomal protein S6 kinase alpha-3 (Homo sapiens) (UniProt P51812); assay: Inhibition of RSK2 at 10 uM
[51] = target: Proto-oncogene tyrosine-protein kinase Src (Homo sapiens) (UniProt P12931); assay: Inhibition of Src at 10 uM
[52] = target: Tyrosine-protein kinase Yes (Homo sapiens) (UniProt P07947); assay: Inhibition of Yes at 10 uM
[53] = target: Tyrosine-protein kinase ABL1 (Homo sapiens) (UniProt P00519); assay: Inhibition of Abl at 10 uM
[54] = target: Tyrosine-protein kinase Fgr (Homo sapiens) (UniProt P09769); assay: Inhibition of Fgr at 10 uM
[55] = target: Receptor-type tyrosine-protein kinase FLT3 (Homo sapiens) (UniProt P36888); assay: Inhibition of Flt3 at 10 uM
[56] = target: Ephrin type-B receptor 4 (Homo sapiens) (UniProt P54760); assay: Inhibition of EphB4 at 10 uM

Sequence of Mitogen-activated protein kinase 14 (Q16539 whole entry): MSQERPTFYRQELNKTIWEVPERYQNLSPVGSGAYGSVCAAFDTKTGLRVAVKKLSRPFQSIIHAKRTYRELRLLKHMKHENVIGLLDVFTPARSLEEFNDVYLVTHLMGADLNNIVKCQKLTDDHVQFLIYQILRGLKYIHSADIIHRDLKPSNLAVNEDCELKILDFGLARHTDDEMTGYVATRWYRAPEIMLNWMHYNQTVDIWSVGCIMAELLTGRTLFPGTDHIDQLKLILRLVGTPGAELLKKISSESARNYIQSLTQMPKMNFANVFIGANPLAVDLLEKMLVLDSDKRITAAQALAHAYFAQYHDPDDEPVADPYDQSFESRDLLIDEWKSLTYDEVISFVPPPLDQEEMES
Sequence of Protein kinase C beta type (Homo sapiens) (P05771 2-671 limits assumed): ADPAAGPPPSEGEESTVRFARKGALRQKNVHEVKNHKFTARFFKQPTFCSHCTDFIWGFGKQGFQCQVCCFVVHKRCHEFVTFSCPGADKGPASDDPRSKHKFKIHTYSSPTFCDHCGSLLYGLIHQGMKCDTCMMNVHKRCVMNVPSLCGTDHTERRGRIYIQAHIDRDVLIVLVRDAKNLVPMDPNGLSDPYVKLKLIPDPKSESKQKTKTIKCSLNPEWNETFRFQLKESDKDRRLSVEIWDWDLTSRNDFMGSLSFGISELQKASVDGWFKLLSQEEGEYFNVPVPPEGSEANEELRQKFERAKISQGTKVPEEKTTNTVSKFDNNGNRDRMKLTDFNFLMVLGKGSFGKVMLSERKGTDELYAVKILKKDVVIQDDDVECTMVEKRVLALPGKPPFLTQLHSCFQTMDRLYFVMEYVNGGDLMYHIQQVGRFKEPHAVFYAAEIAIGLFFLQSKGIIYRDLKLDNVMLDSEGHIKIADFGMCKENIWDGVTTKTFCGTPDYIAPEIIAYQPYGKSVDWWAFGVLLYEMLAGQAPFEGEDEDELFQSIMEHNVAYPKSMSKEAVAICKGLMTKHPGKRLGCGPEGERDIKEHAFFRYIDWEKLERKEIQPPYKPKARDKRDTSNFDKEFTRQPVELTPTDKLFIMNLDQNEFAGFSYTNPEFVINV
Sequence of Tyrosine-protein kinase Lyn (Homo sapiens) (P07948 2-512 limits assumed): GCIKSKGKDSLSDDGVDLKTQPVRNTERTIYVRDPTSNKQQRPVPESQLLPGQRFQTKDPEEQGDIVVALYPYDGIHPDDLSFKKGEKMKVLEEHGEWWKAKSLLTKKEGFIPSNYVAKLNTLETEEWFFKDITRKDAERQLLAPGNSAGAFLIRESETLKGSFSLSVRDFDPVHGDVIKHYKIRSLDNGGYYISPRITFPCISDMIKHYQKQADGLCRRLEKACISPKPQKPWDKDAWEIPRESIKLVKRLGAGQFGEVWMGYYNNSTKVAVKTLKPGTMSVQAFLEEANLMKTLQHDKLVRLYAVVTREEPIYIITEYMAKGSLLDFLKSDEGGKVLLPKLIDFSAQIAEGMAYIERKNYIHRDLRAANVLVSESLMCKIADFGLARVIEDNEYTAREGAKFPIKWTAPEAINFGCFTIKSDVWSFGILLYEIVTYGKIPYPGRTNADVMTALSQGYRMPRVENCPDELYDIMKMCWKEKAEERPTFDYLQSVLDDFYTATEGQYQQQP
Sequence of Megakaryocyte-associated tyrosine-protein kinase (Homo sapiens) (P42679 whole entry): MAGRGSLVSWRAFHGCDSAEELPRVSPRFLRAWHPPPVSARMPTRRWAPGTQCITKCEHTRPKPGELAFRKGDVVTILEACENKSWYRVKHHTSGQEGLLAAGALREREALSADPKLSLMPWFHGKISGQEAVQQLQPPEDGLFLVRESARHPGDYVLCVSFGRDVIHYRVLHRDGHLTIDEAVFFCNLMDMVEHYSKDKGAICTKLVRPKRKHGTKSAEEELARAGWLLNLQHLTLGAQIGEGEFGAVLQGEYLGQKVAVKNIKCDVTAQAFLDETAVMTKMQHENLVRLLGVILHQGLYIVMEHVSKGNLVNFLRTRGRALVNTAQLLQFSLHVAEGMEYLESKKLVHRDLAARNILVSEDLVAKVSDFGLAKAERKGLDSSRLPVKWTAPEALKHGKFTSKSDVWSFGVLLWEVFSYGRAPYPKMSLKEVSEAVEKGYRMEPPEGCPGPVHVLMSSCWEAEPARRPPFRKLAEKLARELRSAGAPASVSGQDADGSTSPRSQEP
Sequence of Tyrosine-protein kinase Blk (Homo sapiens) (P51451 2-505 limits assumed): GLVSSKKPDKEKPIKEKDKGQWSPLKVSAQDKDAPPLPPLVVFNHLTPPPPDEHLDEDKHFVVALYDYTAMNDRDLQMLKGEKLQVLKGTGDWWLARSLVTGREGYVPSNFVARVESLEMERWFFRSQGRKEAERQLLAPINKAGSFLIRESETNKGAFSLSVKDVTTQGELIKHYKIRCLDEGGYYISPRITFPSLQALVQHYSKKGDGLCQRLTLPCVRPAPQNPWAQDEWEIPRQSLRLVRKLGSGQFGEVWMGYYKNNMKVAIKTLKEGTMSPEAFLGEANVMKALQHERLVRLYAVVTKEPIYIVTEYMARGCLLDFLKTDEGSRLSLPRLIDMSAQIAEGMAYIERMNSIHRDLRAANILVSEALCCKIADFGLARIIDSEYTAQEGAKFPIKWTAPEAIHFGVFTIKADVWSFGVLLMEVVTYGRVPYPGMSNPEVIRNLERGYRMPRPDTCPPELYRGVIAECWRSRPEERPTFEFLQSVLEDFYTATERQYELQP
Sequence of Tyrosine-protein kinase BTK (Homo sapiens) (Q06187 whole entry): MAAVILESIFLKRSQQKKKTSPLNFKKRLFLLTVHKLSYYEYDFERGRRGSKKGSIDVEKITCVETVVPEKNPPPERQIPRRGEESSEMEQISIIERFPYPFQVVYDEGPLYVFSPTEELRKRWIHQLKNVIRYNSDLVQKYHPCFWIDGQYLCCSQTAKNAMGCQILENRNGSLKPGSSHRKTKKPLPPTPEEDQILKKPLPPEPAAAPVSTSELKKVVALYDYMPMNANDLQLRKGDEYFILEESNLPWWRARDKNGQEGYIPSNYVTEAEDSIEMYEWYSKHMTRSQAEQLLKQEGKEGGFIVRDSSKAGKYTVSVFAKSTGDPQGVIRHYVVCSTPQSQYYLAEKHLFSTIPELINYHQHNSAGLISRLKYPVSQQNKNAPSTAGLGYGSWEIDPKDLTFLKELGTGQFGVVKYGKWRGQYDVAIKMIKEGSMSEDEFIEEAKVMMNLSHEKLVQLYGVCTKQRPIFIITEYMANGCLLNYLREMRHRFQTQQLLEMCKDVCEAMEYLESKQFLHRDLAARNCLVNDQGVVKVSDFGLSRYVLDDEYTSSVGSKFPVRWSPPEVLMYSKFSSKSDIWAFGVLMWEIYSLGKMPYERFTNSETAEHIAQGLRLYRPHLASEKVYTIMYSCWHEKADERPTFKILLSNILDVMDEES
Sequence of Fibroblast growth factor receptor 2 (Homo sapiens) (P21802 22-821 limits assumed): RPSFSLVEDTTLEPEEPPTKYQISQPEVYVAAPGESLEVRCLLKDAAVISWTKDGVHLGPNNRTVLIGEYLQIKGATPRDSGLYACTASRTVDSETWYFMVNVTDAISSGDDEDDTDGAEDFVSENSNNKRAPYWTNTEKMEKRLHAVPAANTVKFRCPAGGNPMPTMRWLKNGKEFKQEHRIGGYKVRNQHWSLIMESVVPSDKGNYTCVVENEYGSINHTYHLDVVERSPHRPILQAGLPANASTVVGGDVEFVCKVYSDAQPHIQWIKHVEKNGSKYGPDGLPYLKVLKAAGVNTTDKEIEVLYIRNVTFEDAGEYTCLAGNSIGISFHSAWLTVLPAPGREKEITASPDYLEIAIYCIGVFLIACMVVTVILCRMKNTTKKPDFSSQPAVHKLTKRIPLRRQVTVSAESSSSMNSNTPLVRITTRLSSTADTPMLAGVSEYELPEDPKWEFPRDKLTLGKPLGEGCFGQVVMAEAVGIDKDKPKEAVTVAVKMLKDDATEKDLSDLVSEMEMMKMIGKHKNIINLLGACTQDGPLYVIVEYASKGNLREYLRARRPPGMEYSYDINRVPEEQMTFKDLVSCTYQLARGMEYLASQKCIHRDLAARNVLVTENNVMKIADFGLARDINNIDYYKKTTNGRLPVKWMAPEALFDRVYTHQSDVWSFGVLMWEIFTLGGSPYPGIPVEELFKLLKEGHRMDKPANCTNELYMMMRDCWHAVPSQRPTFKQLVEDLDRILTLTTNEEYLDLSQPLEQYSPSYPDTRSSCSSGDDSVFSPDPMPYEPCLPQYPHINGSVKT
Sequence of Fibroblast growth factor receptor 1 (Homo sapiens) (P11362 22-822 limits assumed): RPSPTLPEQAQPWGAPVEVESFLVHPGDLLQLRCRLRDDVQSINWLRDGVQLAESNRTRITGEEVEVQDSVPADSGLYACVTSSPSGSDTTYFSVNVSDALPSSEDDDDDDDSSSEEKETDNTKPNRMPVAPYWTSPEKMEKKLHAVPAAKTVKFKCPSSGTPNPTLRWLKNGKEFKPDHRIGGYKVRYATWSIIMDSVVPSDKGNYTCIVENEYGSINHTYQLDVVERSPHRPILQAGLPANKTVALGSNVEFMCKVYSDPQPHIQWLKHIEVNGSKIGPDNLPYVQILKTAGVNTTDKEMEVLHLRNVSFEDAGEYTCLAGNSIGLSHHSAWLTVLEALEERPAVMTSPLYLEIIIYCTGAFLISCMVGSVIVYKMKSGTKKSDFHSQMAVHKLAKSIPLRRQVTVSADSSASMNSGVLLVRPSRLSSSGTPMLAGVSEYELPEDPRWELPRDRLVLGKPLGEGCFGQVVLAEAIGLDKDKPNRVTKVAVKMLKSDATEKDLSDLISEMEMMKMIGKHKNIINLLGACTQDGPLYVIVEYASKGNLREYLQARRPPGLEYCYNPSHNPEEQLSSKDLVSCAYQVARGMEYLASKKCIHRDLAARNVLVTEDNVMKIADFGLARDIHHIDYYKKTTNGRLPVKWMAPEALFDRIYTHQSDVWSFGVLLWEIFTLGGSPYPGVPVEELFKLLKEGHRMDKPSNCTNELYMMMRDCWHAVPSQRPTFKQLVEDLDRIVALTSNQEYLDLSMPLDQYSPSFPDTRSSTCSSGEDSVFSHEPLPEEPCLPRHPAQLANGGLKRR

Structure (SMILES): CC(C)Nc1nc2ccc(-c3ccnn3-c3cccc(Cl)c3)cc2s1
- pIC50 [1]: 7.14
- pIC50 (PBMC): 6.63

Structure (SMILES): CC(C)Nc1nc2ccc(-c3ccnn3-c3ccc(F)cc3)cc2s1
- pIC50 [1]: 7.32
- pIC50 (PBMC): < 6.60

Structure (SMILES): Cc1ccccc1-n1nccc1-c1ccc2nc(NC(C)C)sc2c1
- pIC50 [1]: 6.84

Structure (SMILES): CC(C)Nc1nc2ccc(-c3ocnc3-c3ccccc3F)cc2s1
- pIC50 (PBMC): 7.40

Structure (SMILES): CC(C)Nc1nc2ccc(-c3ccnn3-c3ccc(Cl)cc3)cc2s1
- pIC50 [1]: < 6.00

Structure (SMILES): Fc1ccccc1-c1ncoc1-c1ccc2ncsc2c1
- pIC50 [1]: 7.33
- pIC50 (PBMC): < 6.60

Structure (SMILES): CC(C)Nc1nc2ccc(-c3ccnn3-c3ccccc3Cl)cc2s1
- pIC50 [1]: 6.76

Structure (SMILES): Cc1cccc(-n2nccc2-c2ccc3nc(NC(C)C)sc3c2)c1
- pIC50 [1]: 7.48
- pIC50 (PBMC): 6.77

Structure (SMILES): CC(C)Nc1nc2ccc(-c3ocnc3-c3ccccc3)cc2s1
- pIC50 [1]: 7.68
- pIC50 (PBMC): 7.02

Structure (SMILES): CC(C)Nc1nc2ccc(-c3ccnn3-c3cccc(F)c3)cc2s1
- pIC50 [1]: 7.48
- pIC50 (PBMC): 6.77

Structure (SMILES): Cc1ccc(-n2nccc2-c2ccc3nc(NC(C)C)sc3c2)cc1
- pIC50 [1]: < 6.00

More lines, main results first:

- pIC50 [1]: 8.57
Structure (SMILES): CC[C@H](C)Nc1nc2ccc(-c3[nH]cnc3-c3ccccc3F)cc2s1
- pIC50 (PBMC): 7.70

- pIC50 [1]: 7.80
Structure (SMILES): Nc1nc2ccc(-c3ocnc3-c3ccccc3F)cc2s1
- pIC50 (PBMC): 6.61

- pIC50 [1]: 7.77
Structure (SMILES): CC[C@@H](C)Nc1nc2ccc(-c3c(-c4ccccc4F)nn(CC)c3N)cc2s1
- pIC50 (PBMC): < 6.60

- pIC50 [1]: 8.48
Structure (SMILES): CC(C)Nc1nc2ccc(-c3[nH]cnc3-c3ccccc3F)cc2s1
- pIC50 (PBMC): 7.46

- pIC50 [1]: 8.15
Structure (SMILES): CC(C)Nc1nc2ccc(-c3[nH]cnc3-c3ccccc3)cc2s1
- pIC50 (PBMC): 6.97

- pIC50 [1]: 7.68
Structure (SMILES): CC(C)Nc1nc2ccc(-c3ccnn3-c3ccccc3)cc2s1
- pIC50 (PBMC): 6.67

- pIC50 [1]: 7.96
Structure (SMILES): CC[C@@H](C)Nc1nc2ccc(-c3c(-c4ccccc4F)nn(C)c3N)cc2s1
- pIC50 (PBMC): 6.93

- pIC50 [1]: 7.92
Structure (SMILES): CCNc1nc2ccc(-c3ocnc3-c3ccccc3F)cc2s1
- pIC50 (PBMC): 6.78

- pIC50 [1]: 8.80
Structure (SMILES): CC[C@@H](C)Nc1nc2ccc(-c3[nH]cnc3-c3ccccc3F)cc2s1
- pIC50 (PBMC): 7.89

- pIC50 [1]: 8.19
Structure (SMILES): CC[C@@H](C)Nc1nc2ccc(-c3ocnc3-c3ccccc3F)cc2s1
- pIC50 (PBMC): 7.57

- pIC50 [1]: 8.43
Structure (SMILES): CC(C)Nc1nc2ccc(-c3c(-c4ccccc4F)n[nH]c3N)cc2s1
- pIC50 (PBMC): 7.29

- pIC50 [1]: 8.00
Structure (SMILES): CC[C@H](C)Nc1nc2ccc(-c3ocnc3-c3ccccc3F)cc2s1
- pIC50 (PBMC): 7.52

- pIC50 [1]: 7.70
Structure (SMILES): CC(C)Nc1nc2ccc(-c3ccnn3-c3ccccc3F)cc2s1
- pIC50 (PBMC): 6.60

- pIC50 [1]: 8.49
- half-life [2]: 1.7 h
- clearance [3]: 23.3 mL/min/kg
- AUC [4]: 2.27 µM·h
- bioavailability [5]: 24%
- inhibition [6]: < 20%
- inhibition [7]: < 20%
- inhibition [8]: < 20%
- inhibition [9]: < 20%
- inhibition [10]: < 20%
- inhibition [11]: < 20%
- inhibition [12]: < 20%
- inhibition [13]: < 20%
- inhibition [14]: < 20%
- inhibition [15]: < 20%
- inhibition [16]: < 20%
- inhibition [17]: < 20%
- inhibition [18]: < 20%
- inhibition [19]: < 20%
- inhibition [20]: < 20%
- inhibition [21]: < 20%
- inhibition [22]: < 20%
- inhibition [23]: < 20%
- inhibition [24]: < 20%
- inhibition [25]: < 20%
- inhibition [26]: < 20%
- inhibition [27]: < 20%
- inhibition [28]: < 20%
- inhibition [29]: < 20%
- inhibition [30]: < 20%
- inhibition [31]: < 20%
- inhibition [32]: < 20%
- inhibition [33]: < 20%
- inhibition [34]: < 20%
- inhibition [35]: < 20%
- inhibition [36]: < 20%
- inhibition [37]: < 20%
- inhibition [38]: < 20%
- inhibition [39]: < 20%
- inhibition [40]: < 20%
- inhibition [41]: < 20%
- inhibition [42]: < 20%
- inhibition [43]: < 20%
- inhibition [44]: < 20%
- inhibition [45]: < 20%
- inhibition [46]: < 20%
- inhibition [47]: < 20%
- inhibition [48]: < 20%
- inhibition [49]: < 20%
- inhibition [50]: < 20%
- inhibition [51]: < 20%
- inhibition [52]: < 20%
- inhibition [53]: 65%
- inhibition [54]: 54%
- inhibition [55]: 68%
- inhibition [56]: < 20%
Structure (SMILES): CC[C@@H](C)Nc1nc2ccc(-c3c(-c4ccccc4F)n[nH]c3N)cc2s1
- pIC50 (PBMC): 7.41

- pIC50 [1]: 8.26
Structure (SMILES): CC[C@H](C)Nc1nc2ccc(-c3c(-c4ccccc4F)n[nH]c3N)cc2s1
- pIC50 (PBMC): 7.11
